In patent US20230339970A1, “CASEIN KINASE 1 DELTA MODULATORS” (priority 2020, published 2023) one finds IC50 data, which are given here for 25 compounds.

As usually defined, the IC50 is the concentration needed to halve the response being measured.

The target of assay [1] is T1, human CSNK1D (Homo sapiens, UniProt P48730).
T1 construct: expressed in transfected cells
Description: Whole Cell nBRET CSNK1D Binding Assay. Particulars: living CHO cells stably expressing human CSNK1D tagged with nanoluciferase; NanoBret tracer 130 nM; 2 hours at 37 C.

In assay [2] the target is T2, human recombinant GST cleaved CSNK1D (Homo sapiens, UniProt P48730).
T2 construct: GST (cleaved yes); purchased University of Dundee clone DU 19064
T2 sequence (P48730 whole entry): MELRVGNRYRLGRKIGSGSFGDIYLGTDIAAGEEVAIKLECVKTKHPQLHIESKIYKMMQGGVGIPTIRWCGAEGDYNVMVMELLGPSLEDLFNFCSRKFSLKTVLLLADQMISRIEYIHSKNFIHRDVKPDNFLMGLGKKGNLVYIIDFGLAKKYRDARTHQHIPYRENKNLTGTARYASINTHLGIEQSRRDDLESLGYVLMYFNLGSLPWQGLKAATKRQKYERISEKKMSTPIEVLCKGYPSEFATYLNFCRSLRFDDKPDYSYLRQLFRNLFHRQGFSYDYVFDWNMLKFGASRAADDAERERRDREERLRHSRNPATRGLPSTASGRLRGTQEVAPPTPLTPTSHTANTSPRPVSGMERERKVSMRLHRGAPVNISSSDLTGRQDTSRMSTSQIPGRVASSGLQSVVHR
Nature of the assay: Purified Enzyme Assay (ADP-Glo CSNK1D Kinase Assay). Particulars: 2 nM CSNK1D; peptide substrate 150 μM; ATP 20 μM; 45 minutes at room temperature. It counts as biochemical. In short, it runs like this: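 Percent activity derived from ADP-Glo quantification of ADP produced. Reactions: compound dose-response with human recombinant GST-cleaved CSNK1D, ATP and substrate peptide PLSRTL-pS-VASLPGL, incubated 45 min at room temperature.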
Background: In ADP-Glo the light output rises with the ADP produced.

T1 sequence (P48730 whole entry): as above

With `C[C@]1(C(F)(F)F)Cn2nc(-c3ccc(F)cn3)c(-c3ccn4nccc4c3)c2CO1` (single isomer, unassigned) [Example 414, (*R)-2-(5-Fluoropyridin-2-yl)-6-methyl-3-(pyrazolo[1,5-a]pyridin-5-yl)-6-(trifluoromethyl)-6,7-dihydro-4H-pyrazolo[5,1-c][1,4]oxazine], the IC50 in assay [1] turned out to be 330 nM; in assay [2], 8 nM.

As for `Cc1cc(-c2c(-c3ncc(F)cc3F)nn3c2COC(C)(C)C3)c2cn[nH]c2n1` [Example 167, 2-(3,5-Difluoropyridin-2-yl)-6,6-dimethyl-3-(6-methyl-1H-pyrazolo[3,4-b]pyridin-4-yl)-6,7-dihydro-4H-pyrazolo[5,1-c][1,4]oxazine], the results for the IC50 in assay [1] and in assay [2] were 91 nM and 3 nM, respectively.

On to `Fc1ccc(-c2nn3c(c2-c2ccnc4[nH]nc(Cl)c24)OCC2(CC2)C3)nc1` [Example 458, 3′-(3-Chloro-1H-pyrazolo[3,4-b]pyridin-4-yl)-2′-(5-fluoropyridin-2-yl)-5′H,7′H-spiro[cyclopropane-1,6′-pyrazolo[5,1-b][1,3]oxazine]], for which the IC50 in assay [1] was found to be 7 nM; in assay [2], 1 nM.

In the case of `CC1(C)Cn2nc(-c3ccc(Cl)cn3)c(-c3ccnc4[nH]ncc34)c2CO1` [Example 146, 2-(5-Chloropyridin-2-yl)-6,6-dimethyl-3-(1H-pyrazolo[3,4-b]pyridin-4-yl)-6,7-dihydro-4H-pyrazolo[5,1-c][1,4]oxazine], the IC50 turned out to be 359 nM in assay [1] and 18 nM in assay [2].

Turning to `CCC(=O)Nc1cc(-c2c(-c3ccc(F)cn3)nn3c2OCC(C)(C)C3)ccn1` [Example 447, N-(4-(2-(5-Fluoropyridin-2-yl)-6,6-dimethyl-6,7-dihydro-5H-pyrazolo[5,1-b][1,3]oxazin-3-yl)pyridin-2-yl)propionamide], the values for the IC50 in assay [1] and in assay [2] were 5 nM and 2 nM, respectively.

As for `[2H]C([2H])([2H])C1(C([2H])([2H])[2H])Cc2c(-c3ccnc4[nH]ncc34)c(-c3ccc(F)cc3)nn2C1` [Example 241, 4-[2-(4-Fluorophenyl)-5,5-bis(methyl-d3)-4,6-dihydropyrrolo[1,2-b]pyrazol-3-yl]-1H-pyrazolo[3,4-b]pyridine], the IC50 in assay [1] was found to be 7 nM; in assay [2], 2 nM.

As for `Cc1nc2[nH]nc(C)c2c(-c2c(-c3ccc(F)cn3)nn3c2CC[C@H]2[C@@H]3C2(F)F)c1F` (single isomer, unassigned) [Example 360, (5a*S,6a*R)-6,6-Difluoro-3-(5-fluoro-3,6-dimethyl-1H-pyrazolo[3,4-b]pyridin-4-yl)-2-(5-fluoropyridin-2-yl)-5,5a,6,6a-tetrahydro-4H-cyclopropa[e]pyrazolo[1,5-a]pyridine], the values for the IC50 in assay [1] and in assay [2] were 70 nM and 7 nM, respectively.

On to `Cc1cc(-c2c(-c3ccc(F)cn3)nn3c2CO[C@H](C)C3)c2cn[nH]c2n1` (single isomer, unassigned) [Example 87, (*R)-2-(5-Fluoro-2-pyridyl)-6-methyl-3-(6-methyl-1H-pyrazolo[3,4-b]pyridin-4-yl)-6,7-dihydro-4H-pyrazolo[5,1-c][1,4]oxazine], for which the IC50 came to 162 nM in assay [1] and 13 nM in assay [2].

On to `Fc1ccc(-c2nn3c(c2-c2ccn4nccc4c2)C[C@H](F)C3)cc1` [Example 226, 5-[(5S)-5-Fluoro-2-(4-fluorophenyl)-5,6-dihydro-4H-pyrrolo[1,2-b]pyrazol-3-yl]pyrazolo[1,5-a]pyridine], for which the IC50 in assay [1] stood at 48 nM; in assay [2], 10 nM.

`C[C@H]1C[C@H](C)n2nc(-c3ccc(F)cn3)c(-c3ccnc4[nH]ncc34)c2O1` (single isomer, unassigned) [Example 205, (5*S,7*S)-2-(5-Fluoropyridin-2-yl)-5,7-dimethyl-3-(1H-pyrazolo[3,4-b]pyridin-4-yl)-6,7-dihydro-5H-pyrazolo[5,1-b][1,3]oxazine]: the half-maximal inhibitory concentration (IC50) in assay [1] was determined as 171 nM; in assay [2], 5 nM.

With `CC1(C)Cn2nc(-c3ccc(F)cn3)c(-c3ccnc(C(F)F)c3)c2CO1` [Example 129, 3-(2-(Difluoromethyl)pyridin-4-yl)-2-(5-fluoropyridin-2-yl)-6,6-dimethyl-6,7-dihydro-4H-pyrazolo[5,1-c][1,4]oxazine], the figures for the IC50 in assay [1] and in assay [2] were 440 nM and 36 nM, respectively.

In the case of `Fc1ccc(-c2nn3c(c2-c2ccnc4[nH]ncc24)CCC2(C3)CC2(F)F)nc1` (single isomer, unassigned) [Example 328, (*R)-2,2-Difluoro-2′-(5-fluoropyridin-2-yl)-3′-(1H-pyrazolo[3,4-b]pyridin-4-yl)-4′,5′-dihydro-7′H-spiro[cyclopropane-1,6′-pyrazolo[1,5-a]pyridine]], the results for the IC50 in assay [1] and in assay [2] were 8 nM and 1 nM, respectively.

Turning to `CC1(C)Cn2nc(-c3ccc(F)cn3)c(-c3ccnc4[nH]cc(C#N)c34)c2CO1` [Example 148, 4-(2-(5-Fluoropyridin-2-yl)-6,6-dimethyl-6,7-dihydro-4H-pyrazolo[5,1-c][1,4]oxazin-3-yl)-1H-pyrrolo[2,3-b]pyridine-3-carbonitrile], the figures for the IC50 in assay [1] and in assay [2] were 3280 nM and 59 nM, respectively.

As for `Fc1ccc(-c2nn3c(c2-c2ccn4nccc4c2)OCCC3)nc1` [Example 440, 2-(5-Fluoropyridin-2-yl)-3-(pyrazolo[1,5-a]pyridin-5-yl)-6,7-dihydro-5H-pyrazolo[5,1-b][1,3]oxazine], the IC50 in assay [1] is 516 nM; in assay [2] it was 44 nM.

Regarding `Fc1ccc(-c2nn3c(c2-c2ccn4nccc4c2)CC[C@H]2[C@@H]3C2(F)F)cc1` (stereo in doubt) [Example 353, (5a*S,6a*R)-6,6-Difluoro-2-(4-fluorophenyl)-3-(pyrazolo[1,5-a]pyridin-4-yl)-5,5a,6,6a-tetrahydro-4H-cyclopropa[e]pyrazolo[1,5-a]pyridine], the figures for the IC50 in assay [1] and in assay [2] were 3830 nM and 1120 nM, respectively.

On to `COCC1(F)CCc2c(-c3cc(C(F)F)nc4[nH]ncc34)c(-c3ccc(F)cn3)nn2C1` (single isomer, unassigned) [Example 306, (*S)-6-(Difluoromethyl)-4-[6-fluoro-2-(5-fluoro-2-pyridyl)-6-(methoxymethyl)-5,7-dihydro-4H-pyrazolo[1,5-a]pyridin-3-yl]-1H-pyrazolo[3,4-b]pyridine], for which the IC50 in assay [1] was 68 nM; in assay [2], 8 nM.

For the compound `CC1(C)Cn2nc(-c3ccc(F)cn3)c(-c3ccn4nccc4c3)c2O1` [Example 367, 6-(5-Fluoro-2-pyridyl)-2,2-dimethyl-7-pyrazolo[1,5-a]pyridin-5-yl-3H-pyrazolo[5,1-b]oxazole], the IC50 in assay [1] was 566 nM; in assay [2] it was 41 nM.

On to `Cc1cc(-c2c(-c3ccc(F)cc3)nn3c2CC(F)(F)CC3)c2cn[nH]c2n1` [Example 47, 4-(5,5-Difluoro-2-(4-fluorophenyl)-4,5,6,7-tetrahydropyrazolo[1,5-a]pyridin-3-yl)-6-methyl-1H-pyrazolo[3,4-b]pyridine], for which the IC50 is 79 nM in assay [1] and 11 nM in assay [2].

`CCn1ncc2cc(-c3c(-c4ccc(F)cn4)nn4c3OCC(C)C4)cnc21` (centres unmarked) [Example 444, 3-(1-Ethyl-1H-pyrazolo[3,4-b]pyridin-5-yl)-2-(5-fluoropyridin-2-yl)-6-methyl-6,7-dihydro-5H-pyrazolo[5,1-b][1,3]oxazine]: the half-inhibitory concentration (IC50) in assay [1] turned out to be 1590 nM; in assay [2], 67 nM.

For `Fc1ccc(-c2nn3c(c2-c2ccnc4[nH]ncc24)CC2(C3)CC2(F)F)nc1` (single isomer, unassigned) [Example 255, (*R)-1′.1′-Difluoro-2-(5-fluoro-2-pyridyl)-3-(1H-pyrazolo[3,4-b]pyridin-4-yl)spiro[4,6-dihydropyrrolo[1,2-b]pyrazole-5,2′-cyclopropane]], the figures for the IC50 in assay [1] and in assay [2] were 1950 nM and 66 nM, respectively.

As to `Cc1nc2[nH]nc(Cl)c2c(-c2c(-c3ccc(F)cn3)nn3c2CCC3)c1F` [Example 224, 3-Chloro-5-fluoro-4-(2-(5-fluoropyridin-2-yl)-5,6-dihydro-4H-pyrrolo[1,2-b]pyrazol-3-yl)-6-methyl-1H-pyrazolo[3,4-b]pyridine], the IC50 came to 5 nM in assay [1] and 4 nM in assay [2].

For `C[C@H]1Cn2nc(-c3ccc(F)cn3)c(-c3ccnc4[nH]ncc34)c2CO1` (single isomer, unassigned) [Example 86, (*S)-2-(5-Fluoro-2-pyridyl)-6-methyl-3-(1H-pyrazolo[3,4-b]pyridin-4-yl)-6,7-dihydro-4H-pyrazolo[5,1-c][1,4]oxazine], the IC50 turned out to be 254 nM in assay [1] and 29 nM in assay [2].

For `Cc1cc(-c2c(-c3ccc(F)cc3)nn3c2CC[C@@H]3C)c2cn[nH]c2n1` [Example 17, 4-[(6S)-2-(4-Fluorophenyl)-6-methyl-5,6-dihydro-4H-pyrrolo[1,2-b]pyrazol-3-yl]-6-methyl-1H-pyrazolo[3,4-b]pyridine], the IC50 in assay [1] amounted to 12 nM; in assay [2], 1 nM.

`CC1(C)Cn2nc(-c3ccc(F)cn3)c(-c3cc(C(F)F)nc4[nH]ncc34)c2CO1` [Example 390, 3-[6-(Difluoromethyl)-1H-pyrazolo[3,4-b]pyridin-4-yl]-2-(5-fluoro-2-pyridyl)-6,6-dimethyl-4,7-dihydropyrazolo[5,1-c][1,4]oxazine]: the results for the concentration for half-maximal inhibition (IC50) in assay [1] and in assay [2] were 141 nM and 6 nM, respectively.

With `CC(C)[C@@H]1Cn2nc(-c3ccc(F)cn3)c(-c3ccnc4[nH]ncc34)c2CO1` (single isomer, unassigned) [Example 97, (*R)-2-(5-Fluoropyridin-2-yl)-6-isopropyl-3-(1H-pyrazolo[3,4-b]pyridin-4-yl)-6,7-dihydro-4H-pyrazolo[5,1-c][1,4]oxazine], the IC50 in assay [1] was determined as 5050 nM; in assay [2] it was 63 nM.
